Legend:
[1] = target: T1, YTHDF2-bound mRNAs (PEG10, NOTCH2, CREBBP) in PC-3 cells (Homo sapiens, UniProt Q9Y5A9); assay: Ribonucleoprotein immunoprecipitation (RIP) followed by qRT-PCR; format: cell-based; conditions: 25 μM, 24 h, versus DMSO
T1 construct: endogenous in cells; host or cells: PC-3
T1 sequence (Q9Y5A9 1-579): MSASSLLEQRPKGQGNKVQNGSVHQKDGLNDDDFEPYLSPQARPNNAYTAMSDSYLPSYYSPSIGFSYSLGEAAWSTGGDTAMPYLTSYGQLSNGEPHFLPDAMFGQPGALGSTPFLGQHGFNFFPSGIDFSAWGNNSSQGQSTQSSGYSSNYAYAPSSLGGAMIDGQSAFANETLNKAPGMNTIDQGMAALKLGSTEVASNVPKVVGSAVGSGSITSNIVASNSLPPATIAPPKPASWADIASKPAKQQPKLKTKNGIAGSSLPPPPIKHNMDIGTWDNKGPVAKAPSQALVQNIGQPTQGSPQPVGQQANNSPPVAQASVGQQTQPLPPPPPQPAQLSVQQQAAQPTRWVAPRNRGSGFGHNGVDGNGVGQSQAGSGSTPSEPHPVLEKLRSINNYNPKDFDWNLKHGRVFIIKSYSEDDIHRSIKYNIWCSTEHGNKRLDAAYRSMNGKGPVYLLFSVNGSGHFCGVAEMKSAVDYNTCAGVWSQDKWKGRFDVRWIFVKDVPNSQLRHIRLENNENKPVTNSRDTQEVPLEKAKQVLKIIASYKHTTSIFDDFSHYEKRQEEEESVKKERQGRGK
Procedure: Five million cells were used for each RIP experiment followed by qRT-PCR,[65] without cross-linking steps and using 1–15 μg of the YTHDF2 antibody (Proteintech, 24744-1-AP) or the same amount of the rabbit normal IgG isotype (negative control, Cell Signaling, 2729S). Cells were harvested after 24 h of treatment with 25 μM ebselen and DMSO as the control, lysed with 20 mM Tris–HCl at pH 7.5, 100 mM KCl, 5 mM MgCl2, and 0.5% NP-40 for 10 min on ice, and centrifuged at 15,000g for 10 min at 4 °C. Lysates were then incubated with Dynabead A/G (Thermo Fisher, 10001D/10003D) for pre-clearing for 1 h at 4 °C and then with Dynabeads A/G (80/20 ratio) at RT for 1 h with YTHDF2 or rabbit isotype IgG for Ab coating. After the pre-clearing steps and the coating, lysates were split between YTHDF2 and IgG-coated beads, while 1–5% of the lysate was stored as the input and incubated O/N at 4 °C. Finally, samples were washed with NT2 buffer for five times, 5 min each at 4 °C. […] For each condition, the ΔCt value of IgG and YTHDF2 was evaluated in triplicate. Normalization of the values was then carried out following the percent input method, in which values from IgG and YTHDF2 IP were calculated as % input of the adjusted input values. […] YTHDF2 and IgG fractions were calculated as % input by subtracting to the adjusted input values their ΔCt values. […]

[2] = target: T2, YTHDF1 in HEK293T cells (Homo sapiens, UniProt Q9BYJ9); assay: Cellular thermal shift assay (CETSA); format: cell-based; conditions: 50 μM, 3 h, versus DMSO, listed as Ebselen
T2 construct: endogenous in cells; host or cells: HEK293T
T2 sequence (Q9BYJ9 1-559): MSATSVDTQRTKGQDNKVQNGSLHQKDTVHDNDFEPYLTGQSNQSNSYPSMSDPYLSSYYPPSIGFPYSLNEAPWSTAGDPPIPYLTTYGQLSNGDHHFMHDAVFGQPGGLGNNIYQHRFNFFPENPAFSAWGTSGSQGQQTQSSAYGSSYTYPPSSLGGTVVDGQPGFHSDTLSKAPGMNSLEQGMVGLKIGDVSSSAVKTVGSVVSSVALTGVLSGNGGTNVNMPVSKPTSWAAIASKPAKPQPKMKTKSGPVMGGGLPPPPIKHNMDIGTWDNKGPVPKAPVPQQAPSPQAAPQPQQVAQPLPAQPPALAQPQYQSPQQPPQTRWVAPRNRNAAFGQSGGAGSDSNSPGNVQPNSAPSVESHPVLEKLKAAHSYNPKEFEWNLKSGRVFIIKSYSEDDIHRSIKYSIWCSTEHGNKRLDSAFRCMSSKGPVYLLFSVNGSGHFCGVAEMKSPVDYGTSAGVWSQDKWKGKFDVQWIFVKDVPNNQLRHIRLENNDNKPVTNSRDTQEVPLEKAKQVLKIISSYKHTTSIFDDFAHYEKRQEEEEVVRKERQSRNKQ
Procedure: HEK293T cells were seeded on 100 mm cell culture plate/s and allowed to adhere overnight. At 80% of confluency, cells were treated with 50 μM ebselen or DMSO as a control and incubated for 3 h at 37 °C in the CO2 incubator. Cells were centrifuged and resuspended in PBS and the protease inhibitor, at a concentration of (0.5–1) × 10^6 cells /100 μL of suspension. Lysates were divided into 9–10 aliquots of 100 μL into 0.2 mL microcentrifuge tubes and incubated at a temperature gradient on a PCR machine for 3 min. After incubation, lysates were frozen and thawed five times in dry ice and at 27 °C for 3 min each. All tubes were then centrifuged at 4 °C for 20 min at 12,000 rpm. Supernatants were then collected and transferred to clean tubes with a loading buffer 5×, heated for 10 min at 95 °C, and detected with Western Blot. The blot was then plotted with a YTHDF1 (Proteintech, 17479-1-AP) and actin (Cell Signaling, 12620S) primary antibody and subsequently with anti-Rabbit HRP (Santa Cruz, sc-2357) and anti-mouse HRP (Thermo Fisher, 61-6520). Chemiluminescent detection was performed using Amersham ECL Prime (GE Healthcare).

O=c1c2ccccc2[se]n1-c1ccccc1 [Compound 1, 2-phenyl-1,2-benzisoselenazol-3(2H)-one]
YTHDF2-bound target mRNA levels (RIP, in words) [1]: decrease of the mRNA levels compared to control samples | ΔTagg of YTHDF1 (CETSA) [2]: 3.48 °C

From article PMC9578143, “Small-Molecule Ebselen Binds to YTHDF Proteins Interfering with the Recognition of N^6-Methyladenosine-Modified RNAs” (ACS Pharmacology & Translational Science, 2022)
